Source: patent publication US11590103B2, “Ascorbate in the prevention of statin induced vascular calcification” (priority 2019, dated 2023)

What was measured:
Assay type in all cases: cell-based
[1] = tested on: human aortic smooth muscle cells (AoSMC); experiment: Calcium accumulation in extracellular matrix of cultured AoSMC
Experimental: (§1) Cell viability was monitored with MTT assay.
AoSMC were seeded on fibronectin covered plastic plates at density 25,000 per square cm and grown to confluence for 5-7 days. […] J Cardiovasc Pharmacol 2008; 52:55-65. After four washes with PBS, ECM layers were solubilized by incubation in 0.6N HCl for 48 hours at 37° C. Calcium content in solubilized samples was measured with TECO Ca assay according to manufacturer's protocol.

[2] = tested on: human dermal fibroblasts (DF); experiment: Expression of osteoblast markers in dermal fibroblasts (immunoassay); settings: 100 mcM ascorbic acid, medium with 5 mM beta-glycerophosphate and 25 mcM forskolin, FIG. 3
Experimental: as §1
(§2) For the experiments AoSMC, DF and hFOB cells were seeded in separate 96 well plastic plates at density 25,000 per square cm and grown to confluence for 5-7 days. Tested compounds were added to cells at indicated concentrations for 72 hours in DMEM supplemented with 2% FBS. Cell layers were washed three times with PBS and fixed with 3% formaldehyde in PBS at 4° C. for one hour. Fixed cell layers were washed four times with PBS and treated with 1% BSA/PBS for one hour at RT. Immunoassay for osteogenic markers was done by sequential incubation with primary monoclonal antibodies (R&D Systems) in 1% BSA/PBS for 2 hours followed by 1 hour incubation with secondary goat anti-mouse IgG antibodies labeled with horse radish peroxidase (HRP). Retained peroxidase activity was measured after the last washing cycle (three times with 0.1% BSA/PBS) using TMB peroxidase substrate reagent (Rockland). Optical density was read with plate reader (Molecular Devices) at 450 nm and expressed as percentage of control cell samples incubated in unsupplemented 2% FBS/DMEM. To ensure a direct comparison of osteogenic markers expression on different cell types all pcell covered plates were treated identical and simultaneously during immunoassay.

[3] = tested on: human aortic smooth muscle cells (AoSMC); experiment: Alkaline phosphatase activity assay in AoSMC; settings: 300 mcM ascorbate, regular growth medium, FIG. 1
Experimental: AoSMC were plated in 96 well plates and grown to confluent layer. Cells were incubated with ascorbic acid in growth medium for three days. Cells were washed with phosphate buffered saline (PBS) and supplemented with 50 mcl/well 25 mcg/ml 4-MUP (fluorescent ALP substrate, Sigma) in alkaline buffer (Sigma)/1% Triton X100 for 1 h at room temperature. Fluorescence was measured at 360/450 nm.

[4] = tested on: human aortic smooth muscle cells (AoSMC); experiment: Expression of osteoblast markers in AoSMC (immunoassay); settings: 100 mcM ascorbic acid, medium with 5 mM beta-glycerophosphate and 25 mcM forskolin, FIG. 3
Experimental: as §1, §2

[5] = 100 mcM ascorbate concomitant with simvastatin, without forskolin, FIG. 2A

CC[C@H](C)C(=O)O[C@H]1CCC=C2C=C[C@H](C)[C@H](CC[C@@H]3C[C@@H](O)CC(=O)O3)[C@H]21 [mevastatin]
calcium accumulation ([1]; 1 mM mevastatin, with 25 mcM forskolin, FIG. 2B, control 1.35 mcg/well): 1.8 mcg/well

O=C1O[C@H]([C@@H](O)CO)C(O)=C1O [ascorbic acid, L-ascorbic acid]
expression of all tested osteogenic markers [2]: significantly reduced
decrease of calcium accumulation ([1]; 100 mcM ascorbate added to 1 mM mevastatin, with 25 mcM forskolin, FIG. 2B): 19%
accumulated calcium [1, 5]: 0.2 mcg/well
decrease of accumulated calcium [1, 5]: 54%
decrease of extracellular Ca accumulation by AoSMC ([1]; 300 mcM ascorbate, regular growth medium, FIG. 1): 20%
decrease of cellular alkaline phosphatase activity [3]: 80%
expression of all tested osteogenic markers [4]: significantly reduced

CCC(C)(C)C(=O)O[C@H]1C[C@@H](C)C=C2C=C[C@H](C)[C@H](CC[C@@H]3C[C@@H](O)CC(=O)O3)[C@H]21 [simvastatin]
increase of calcium accumulation in AoSMC layers ([1]; in the presence of simvastatin, without forskolin, FIG. 2A): 23%
